The source of these data is patent US7973061B2, “Anaplastic lymphoma kinase modulators and methods of use” (Exelixis, Inc., priority 2004, dated 2011).

The target of the assay is T1, ALK (baculovirus expressed human ALK kinase domain F1098-K1410) (Homo sapiens, UniProt Q9UM73).
T1 construct: human ALK kinase domain F1098-K1410; made in house
Nature of the assay: biochemical. Conditions: 1 μM ATP, 4 μM poly-AEKY, 12 nM ALK, 2 hours at ambient temperature; read-out: ALK IC50. The method, then: Kinase activity and compound inhibition are investigated using one or more of the three assay formats described below. The ATP concentrations for each assay are selected to be close to the Michaelis-Menten constant (KM) for each individual kinase. Dose-response experiments are performed at 10 different inhibitor concentrations in a 384-well plate format. […] Y=Min+(Max−Min)/(1+(X/IC50)^H) Equation (2) Luciferase-Coupled Chemiluminescent Kinase Assay
ALK biochemical activity was assessed using a Luciferase-Coupled Chemiluminescent Kinase assay (LCCA) format in which kinase activity was measured as the percent ATP remaining following the kinase reaction. ATP remaining after the kinase reaction was detected by luciferase-luciferin-coupled chemiluminescence. […] The mixture was incubated at ambient temperature for 2 hours after which 20 μL luciferase-luciferin mix was added and the chemiluminescent signal read using a Wallac Victor^2 reader. […] Consumption of ATP by ALK can be quantified and utilized as a measure of inhibition of ALK activity by compounds described herein. By employing serial dilutions of compounds to be tested, the ability of test compounds to inhibit ALK activity can be determined.

T1 sequence (Q9UM73 1098-1410): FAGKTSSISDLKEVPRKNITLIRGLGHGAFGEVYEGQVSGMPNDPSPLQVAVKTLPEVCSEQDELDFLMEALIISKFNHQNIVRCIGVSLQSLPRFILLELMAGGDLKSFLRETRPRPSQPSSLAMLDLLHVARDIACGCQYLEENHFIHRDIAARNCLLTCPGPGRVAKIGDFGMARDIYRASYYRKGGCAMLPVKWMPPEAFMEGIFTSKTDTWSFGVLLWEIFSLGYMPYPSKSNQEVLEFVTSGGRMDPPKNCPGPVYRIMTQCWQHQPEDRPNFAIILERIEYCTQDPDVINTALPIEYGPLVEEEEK

What is called IC50 is the concentration that inhibits the measured activity by half. As for `O=C(COc1ccc(OC(F)(F)F)cc1)NCc1nc(C(=O)N[C@@H]2CCC[C@H]2OCc2ccccc2)cs1` [Entry 218, N-{(1R,2R)-2-[(phenylmethyl)oxy]cyclopentyl}-2-({[({4-[(trifluoromethyl)oxy]phenyl}oxy)acetyl]amino}methyl)-1,3-thiazole-4-carboxamide], the IC50 lay within 50 to 500 nM.

Consider `O=C(COc1ccc(OC(F)(F)F)cc1)NCc1nc(C(=O)N2CC[C@@H]3CCCC[C@@H]3C2)cs1` [Entry 271, N-({4-[(4aS,8aS)-octahydroisoquinolin-2(1H)-ylcarbonyl]-1,3-thiazol-2-yl}methyl)-2-({4-[(trifluoromethyl)oxy]phenyl}oxy)acetamide], for which the IC50 is 500 to 2000 nM.

Take `O=C(COc1ccc(OC(F)(F)F)cc1)NCc1nc(C(=O)NCCc2ccc(Cl)cc2)cs1` [Entry 83, N-[2-(4-chlorophenyl)ethyl]-2-({[({4-[(trifluoromethyl)oxy]phenyl}oxy)acetyl]amino}methyl)-1,3-thiazole-4-carboxamide]: the IC50 lay in the range of 50 to 500 nM.

On to `CN(C)Cc1ccc(CSCCNC(=O)c2csc(CNC(=O)COc3ccc(OC(F)(F)F)cc3)n2)o1` [Entry 130, N-{2-[({5-[(dimethylamino)methyl]furan-2-yl}methyl)thio]ethyl}-2-({[({4-[(trifluoromethyl)oxy]phenyl}oxy)acetyl]amino}methyl)-1,3-thiazole-4-carboxamide], for which the IC50 lay within 50 to 500 nM.

`CC(C)CNC(=O)c1csc(CNC(=O)COc2ccc(OC(F)(F)F)cc2)n1` [Entry 94, N-(2-methylpropyl)-2-({[({4-[(trifluoromethyl)oxy]phenyl}oxy)acetyl]amino}methyl)-1,3-thiazole-4-carboxamide]: the IC50 was 50 to 500 nM.

As for `COc1ccccc1CNC(=O)c1csc(CN)n1` [Entry 304, 2-(aminomethyl)-N-{[2-(methyloxy)phenyl]methyl}-1,3-thiazole-4-carboxamide], the concentration for half-maximal inhibition (IC50) was greater than 2000 nM.

Regarding `O=C(COc1ccc(OC(F)(F)F)cc1)NCc1nc(C(=O)NCCc2cccc(Cl)c2)co1` [Entry 31, N-[2-(3-chlorophenyl)ethyl]-2-({[({4-[(trifluoromethyl)oxy]phenyl}oxy)acetyl]amino}methyl)-1,3-oxazole-4-carboxamide], the IC50 was 50 to 500 nM.

For `COc1ccc(CCNC(=O)c2csc(CNC(=O)COc3ccc(OC(F)(F)F)cc3)n2)cc1OC` [Entry 42, N-{2-[3,4-bis(methyloxy)phenyl]ethyl}-2-({[({4-[(trifluoromethyl)oxy]phenyl}oxy)acetyl]amino}methyl)-1,3-thiazole-4-carboxamide], the IC50 is 50 to 500 nM.

Take `CSCCNC(=O)c1csc(CNC(=O)COc2ccc(OC(F)(F)F)cc2)n1` [Entry 195, N-[2-(methylthio)ethyl]-2-({[({4-[(trifluoromethyl)oxy]phenyl}oxy)acetyl]amino}methyl)-1,3-thiazole-4-carboxamide]: the IC50 lay in the range of 50 to 500 nM.

As for `CCSCCNC(=O)c1csc(CNC(=O)COc2ccc(OC(F)(F)F)cc2)n1` [Entry 146, N-[2-(ethylthio)ethyl]-2-({[({4-[(trifluoromethyl)oxy]phenyl}oxy)acetyl]amino}methyl)-1,3-thiazole-4-carboxamide], the IC50 lay in the range of 50 to 500 nM.

Turning to `O=C(COc1ccc(OC(F)(F)F)cc1)NCc1nc(C(=O)NCCc2ccccc2F)cs1` [Entry 5, N-[2-(2-fluorophenyl)ethyl]-2-({[({4-[(trifluoromethyl)oxy]phenyl}oxy)acetyl]amino}methyl)-1,3-thiazole-4-carboxamide], the IC50 was less than 50 nM.

`C[C@H](CNC(=O)c1coc(CNC(=O)COc2ccc(OC(F)(F)F)cc2)n1)c1ccccc1` [Entry 240, N-[(2S)-2-phenylpropyl]-2-({[({4-[(trifluoromethyl)oxy]phenyl}oxy)acetyl]amino}methyl)-1,3-oxazole-4-carboxamide]: the IC50 is 500 to 2000 nM.

Turning to `COc1ccccc1CNC(=O)c1csc(CNC(=O)COc2ccc(Br)cc2)n1` [Entry 277, 2-[({[(4-bromophenyl)oxy]acetyl}amino)methyl]-N-{[2-(methyloxy)phenyl]methyl}-1,3-thiazole-4-carboxamide], the half-maximal inhibitory concentration (IC50) is 500 to 2000 nM.
